In US4966962A, “Reverse analogue of actinomycin D” (Trustees of Boston University, priority 1988, dated 1990):
In brackets after ≈: the same amount, converted by molar mass. Like-named read-outs stand apart in the source and are kept apart here. *1 amine or outer side, *2 acyl side, *3 side chain or, on linkers, in order; H or OH if unused. Where a SMILES comes first, the peptide text is derived from it. Bridges are numbered along the chain shown (N, C = ends). Roman numbers before positions name the chains, in order. [ ]: non-standard residue; d: D form. Actinocin(9to1) = Cc1c2oc3c(C)ccc(C(=O)[*:1])c3nc-2c(C(=O)[*:2])c(N)c1=O; NMeV = CN[C@H](C(=O)O)C(C)C; Sar = CNCC(=O)O

Legend:
Solubility in water = assay type: physicochemical; details: for solubility in water: at 20° C.
Procedure: Synthesis of "Reverse" III AMD Analogue (RAD III, 3c). The synthesis of RAD III (3c) is shown schematically in Scheme I. Compound 4 was reacted with the benzyl ester of oxalacetic acid at 80° C. according to the procedure reported. The resulting product 5 with the CH2 COOCH2 C6 H5 substituent at the C-2 of the oxazole ring was debenzylated to 6, and compound 6 was coupled with excess 1,4-diaminobutane by DCC in pyridine. […] Like AMD and its other "reverse" analogues, RAD III (3c) is 16-fold more soluble in water at 4° C. than at 20° C.

[1] = test system: human colon carcinoma HT-29; assay: Inhibition of nucleic acid synthesis in HT-29 cells in vitro; assay type: cell-based; details: 2-h exposure
Excerpt: In addition to the P388 cells, this inhibitory activity in human carcinoma HT-29 grown in tissue culture has been also examined. The values of the drug concentration producing 50% inhibition of the incorporation of [^3 H]-thymidine and [^14 C] uridine into nucleic acid macromolecules are presented in Table V. These values are taken as estimates of the inhibition of DNA and RNA synthesis. […] Furthermore, the inhibitory activities of these analogues are three-to fivefold higher than AMD; the order of potency of the analogues for their inhibition of DNA synthesis is:
DNA and RNA synthesis in P388 and HT-29 cells lines was monitored in the presence of drugs, and the rates of inhibition of their synthesis were estimated from the amounts of [2-^14 C]-uridine and [^3 H]-thymidine into RNA and DNA, respectively, according to the methods described previously.
In brief, for HT-29 colon carcinoma monolayer cells, 10^4 cells in each of five wells per concentration, were incubated with radiolabelec nucleosides ([…] each) for the last hour of a 2-h drug exposure, following which the cells were aspirated and washed with buffered medium. Cells were trypsinized and counted in the Coulter counter. The cell suspensions were then precipitated onto glass fiber filter discs (Whatman 934H), with 10% trichloracetic acid and twice with 95% ethanol and dried, and the incorporation of radionucleotides was estimated.
In addition, to investigate the cross contamination of radioactivity from [2^14 C] uridine, the cells were lysed with ice-cold 1% Triton X for 2.5 min. Macromolecules were precipitated with the addition of 10% perchloric acid (5% in the medium) and centrifuged; the pellet in 1% NaCl was treated with an equal volume of phenol reagent, the emulsion was centrifuged at 10000 g for 30 min at 4° C., and the separated layer was adjusted to 1% NaCl and treated with an equal volume of 2-ethoxyethanol to precipitate the nucleic acids. The precipitate was washed with 75% ethanol and dissolved in an aqueous solution containing 2% sodium acetate and 1.5% NaCl. An aliquot was used for estimation of the total radionucleotide incorporation. Ribonuclease, previously heated to 80° C. for 10 min to destroy deoxyribonuclease activity, was added, and the mixture was incubated at 37° C. for 30 min.
^a Human colon carcinoma in culture, IC50, drug concentration
producing a 50% inhibition of incorporation of precursor [^3 H]
thymidine into DNA and [^14 C] uridine into RNA in the cell lines,
isolated as acid preciptable materials. Data are average of replicate

P388 Leukemia = assay: Minimum effective dose in P388 tumor bearing mice; assay type: in vivo; details: for therapeutic index MTD/MED: MTD in normal BDF1 mice / MED in P388 tumor bearing mice; for MED (minimum effective dose), dose giving 45% increase in life span over control: ip once on days 1, 5, and 9, from plotted log-dose response data
Excerpt: ^a Drugs administered ip once on days 1, 5, and 9 starting 1 day afte
tumor implantation. Determinations were made from analysis of plotted
logdose response data. ^b MED (minimum effective dose) is the dose
(milligram/killogram) providing an increase in life span of 45% over

calf thymus DNA [2] = details: value given with references 2,7; cited from earlier work
[3] = test system: CX-1 human colon adenocarcinoma; assay: Chemotherapy of human colon CX-1 tumor heterotransplanted in nude mice; assay type: in vivo, human tumor in athymic mice
colon tumor 26 = assay: In vivo activity against colon tumor 26; parameters: species or system CDF1 mice; details: three doses over 9-day period
mouse melanoma (B16) = assay: In vitro inhibition of tumor cell growth; assay type: cell-based; details: B16 cell line
Excerpt: The comparative cell growth inhibitory activity of RAD's and SAD are reported (data in Table IV, supplementary material). The cell lines used are human lymphoblastic leukemia (CCRF-CEM), murine lymphocytic leukemia (P388) and lymphoid leukemia (L1210), and mouse melanoma (B16). […] In general, the cytotoxic potencies of the analogues are in the order: […]

calf thymus DNA [4] = assay: Equilibrium binding constants from Scatchard plots of binding isotherms; details: 0.01M phosphate buffer, pH 7.0 at 20° C.
Procedure: The equilibrium binding constants of RAD III (3c), determined from the Scatchard plots of binding isotherms with use of calf thymus DNA, are Kapp, 2.9×10^6 M^-1, and Bapp, 0.040 in 0.01M phosphate buffer, pH 7.0 at 20° C.

low molecular weight DNA = assay: Viscometry experiment (intercalation into DNA); assay type: binding; details: DNA 0.5×10^5 to 1.0×10^5 daltons
[5] = [3H]thymidine incorporation, read-out: IC50, DNA synth
[6] = [14C]uridine incorporation, read-out: IC50, RNA synth

**Q.** What does the source list for `Cc1c2oc3c(C)ccc(C(=O)N[C@@H]4C(=O)N[C@H](C(C)C)C(=O)N5CCC[C@H]5C(=O)N(C)CC(=O)N(C)[C@@H](C(C)C)C(=O)O[C@@H]4C)c3nc-2c(C(=O)N[C@@H]2C(=O)N[C@H](C(C)C)C(=O)N3CCC[C@H]3C(=O)N(C)CC(=O)N(C)[C@@H](C(C)C)C(=O)O[C@@H]2C)c(N)c1=O` [AMD (1), Actinomycin D] (I: T[dV]P[Sar][NMeV] / II: T[dV]P[Sar][NMeV]; ester I:1-I:C, II:1-II:C; linker I:N-II:N via Actinocin(9to1))?
**A.** solubility in water (Solubility in water): 1000 µg/mL (≈ 797 µM); IC50 [1, 5]: 900 ± 80 nM; IC50 [1, 6]: 100 ± 11 nM; therapeutic index MTD/MED (P388 Leukemia): 4; MED (minimum effective dose), dose giving 45% increase in life span over control (P388 Leukemia): 0.0625 milligram/killogram; Bapp (calf thymus DNA [2]): 0.108; Kapp (equilibrium binding constant) (calf thymus DNA [2]): 2.3e+07 M⁻¹

**Q.** What does the source list for `Cc1c2oc3c(C)c4oc(-c5ccccc5)nc4c(C(=O)N[C@@H]4C(=O)N[C@H](C(C)C)C(=O)N5CCC[C@H]5C(=O)N(C)CC(=O)N(C)[C@@H](C(C)C)C(=O)O[C@@H]4C)c3nc-2c(C(=O)N[C@@H]2C(=O)N[C@H](C(C)C)C(=O)N3CCC[C@H]3C(=O)N(C)CC(=O)N(C)[C@@H](C(C)C)C(=O)O[C@@H]2C)c(N)c1=O` [RAD II (3b)]?
**A.** IC50 [1, 5]: 580 ± 55 nM; IC50 [1, 6]: 68 ± 10 nM; therapeutic index MTD/MED (P388 Leukemia): 67; MED (minimum effective dose), dose giving 45% increase in life span over control (P388 Leukemia): 0.03 milligram/killogram

**Q.** With `Cc1c2oc3c(C)c4oc(CC(=O)NCCCCN)nc4c(C(=O)N[C@@H]4C(=O)N[C@H](C(C)C)C(=O)N5CCC[C@H]5C(=O)N(C)CC(=O)N(C)[C@@H](C(C)C)C(=O)O[C@@H]4C)c3nc-2c(C(=O)N[C@@H]2C(=O)N[C@H](C(C)C)C(=O)N3CCC[C@H]3C(=O)N(C)CC(=O)N(C)[C@@H](C(C)C)C(=O)O[C@@H]2C)c(N)c1=O` [RAD III (3c)] as the molecule, how does the “fold more soluble in water at 4° C. than at 20° C.” value (Solubility in water; 4° C. vs 20° C.) read?
**A.** 16 fold

**Q.** What about the solubility in water (Solubility in water) of the same molecule?
**A.** 2100 µg/mL (≈ 1470 µM)

**Q.** What about the “% T/C, optimal” value ([3]; dose 75 μg/kg iv once a week for three weeks, TST 18, observed day 27) of the same molecule?
**A.** 13%

**Q.** And the “activity against colon tumor 26” value (colon tumor 26)?
**A.** significant activity

**Q.** What about the IC50 [1, 5] of the same molecule?
**A.** 365 ± 45 nM

**Q.** What about the IC50 [1, 6] of the same molecule?
**A.** 45 ± 8 nM

**Q.** And the “therapeutic index MTD/MED” value (P388 Leukemia)?
**A.** 70

**Q.** And the “MED (minimum effective dose), dose giving 45% increase in life span over control” value (P388 Leukemia)?
**A.** 0.05 milligram/killogram

**Q.** What about the “cell growth inhibitory potency relative to AMD” value (mouse melanoma (B16)) of the same molecule?
**A.** two to fourfold

**Q.** What about the Bapp (calf thymus DNA [4]) of the same molecule?
**A.** 0.040

**Q.** What about the “Kapp (equilibrium binding constant)” value (calf thymus DNA [4]) of the same molecule?
**A.** 2.9e+06 M⁻¹

**Q.** What about the “change in the intrinsic viscosity with increasing [ligand]/[DNA base pair]” value (low molecular weight DNA) of the same molecule?
**A.** failed to demonstrate any measurable change in the intrinsic viscosity

**Q.** Which “% T/C, optimal” value ([3]; dose 40 μg/kg iv once a week for three weeks, TST 15, observed day 22) does the source give for `Cc1c2oc3c(C)c(O)c(N)c(C(=O)N[C@@H]4C(=O)N[C@H](C(C)C)C(=O)N5CCC[C@H]5C(=O)N(C)CC(=O)N(C)[C@@H](C(C)C)C(=O)O[C@@H]4C)c3nc-2c(C(=O)N[C@@H]2C(=O)N[C@H](C(C)C)C(=O)N3CCC[C@H]3C(=O)N(C)CC(=O)N(C)[C@@H](C(C)C)C(=O)O[C@@H]2C)c(N)c1=O` [SAD (2)] here?
**A.** 18%

**Q.** What about the “% T/C, optimal” value ([3]; dose 55 μg/kg iv once a week for three weeks, TST 15, observed day 22) of the same molecule?
**A.** 19%

**Q.** What about the “% T/C, optimal” value ([3]; dose 70 μg/kg iv once a week for three weeks, TST 15, observed day 32) of the same molecule?
**A.** 5%

**Q.** And the “activity against colon tumor 26” value (colon tumor 26)?
**A.** significant activity

**Q.** And the “increase in %ILS over controls” value (colon tumor 26)?
**A.** 50-150%

**Q.** What about the “increase of survival rate at 60 days” value (colon tumor 26) of the same molecule?
**A.** 10-40%

**Q.** And the IC50 [1, 5]?
**A.** 70 ± 11 nM

**Q.** And the IC50 [1, 6]?
**A.** 55 ± 6 nM

**Q.** What about the “therapeutic index MTD/MED” value (P388 Leukemia) of the same molecule?
**A.** 96

**Q.** And the “MED (minimum effective dose), dose giving 45% increase in life span over control” value (P388 Leukemia)?
**A.** 0.025 milligram/killogram

**Q.** What about the “cell growth inhibitory potency relative to AMD” value (mouse melanoma (B16)) of the same molecule?
**A.** two to fourfold
